Source: US9856268B2, “Lactam kinase inhibitors” (G1 Therapeutics, Inc., priority 2012, dated 2018)

Legend:
Aurora -A = molecular target: T1, Aurora -A (Homo sapiens, UniProt O14965); assay: Kinase electrophoretic mobility shift assay, Aurora -A; format: biochemical; details: compounds tested at 10 μM, average of n = 2, ATP at apparent Km; read-out: Aurora -A activity (percent inhibition)
T1 sequence (O14965 1-403): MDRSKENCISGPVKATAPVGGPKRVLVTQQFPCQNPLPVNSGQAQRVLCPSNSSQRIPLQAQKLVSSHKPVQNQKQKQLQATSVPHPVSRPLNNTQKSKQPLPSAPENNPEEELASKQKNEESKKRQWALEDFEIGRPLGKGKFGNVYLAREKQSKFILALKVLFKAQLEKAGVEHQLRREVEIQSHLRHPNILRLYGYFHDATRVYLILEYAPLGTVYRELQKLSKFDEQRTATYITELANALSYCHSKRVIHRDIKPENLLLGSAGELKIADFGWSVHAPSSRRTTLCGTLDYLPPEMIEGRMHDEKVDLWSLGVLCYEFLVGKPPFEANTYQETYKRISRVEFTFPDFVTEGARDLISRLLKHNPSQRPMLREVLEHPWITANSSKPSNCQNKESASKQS
Description: (§1) Kinase activity is measured in vitro using electrophoretic mobility shift assay. The kinase reactions are assembled in 384 well plates in total volume of 25 μL. The reactions comprise: purified recombinant kinase enzyme, test compound, ATP (at apparent Km for each kinase), and fluorescently labeled peptide substrate. The reaction buffer composed of: 100 mM HEPES, pH7.5; 5 mM MgCl2; 1 mM DTT; 0.1% bovine serum albumin; 0.01% Triton X-100, and 1% DMSO (from compound). The reactions were incubated at room temperature for indicated time and quenched by addition of 45 μL of termination buffer (100 mM HEPES pH7.5; 0.01% Triton X-100; 30 mM EDTA). Substrate and product peptides in each sample were electrophoretically separated and detected using 12 channel LabChip3000® microfluidic capillary electrophoresis instrument (Caliper Life Sciences). The change in the relative fluorescence intensities of substrate and product peaks (reflecting enzyme activity) was measured. Capillary electrophoregramms were analyzed using HTS Well Analyzer software (Caliper Life Sciences). The kinase activity in each sample was determined as “product to sum” ratio (PSR):P/(S+P), where P is the peak height of the product peptide and S is the peak height of the substrate peptide. Negative control samples (0%-inhibition in the absence of inhibitor) and positive control samples (100%-inhibition, in the presence of 20 mM EDTA) were assembled in replicates of four and were used to calculate %-inhibition values for each compound at each concentration. Percent inhibition (Pinh) was determined using following equation: Pinh=(PSR0%−PSRinh)/(PSR0%−PSR100%)*100, where PSRinh is the product-sum ratio in the presence of inhibitor, PSR0% is the average product-sum ration in the absence of inhibitor and PSR100% is the average product-sum ratio in 100%-inhibition control samples. The IC50 values of reference inhibitors were determined by fitting the inhibition curves by a 4 parameter sigmoid dose-response model using XLfit 4 software (IDBS).

DYRK3 = molecular target: T2, DYRK3 (Homo sapiens, UniProt O43781); assay: Kinase electrophoretic mobility shift assay, DYRK3; format: biochemical; details: compounds tested at 10 μM, average of n = 2, ATP at apparent Km; read-out: DYRK3 activity (percent inhibition)
T2 sequence (O43781 1-588): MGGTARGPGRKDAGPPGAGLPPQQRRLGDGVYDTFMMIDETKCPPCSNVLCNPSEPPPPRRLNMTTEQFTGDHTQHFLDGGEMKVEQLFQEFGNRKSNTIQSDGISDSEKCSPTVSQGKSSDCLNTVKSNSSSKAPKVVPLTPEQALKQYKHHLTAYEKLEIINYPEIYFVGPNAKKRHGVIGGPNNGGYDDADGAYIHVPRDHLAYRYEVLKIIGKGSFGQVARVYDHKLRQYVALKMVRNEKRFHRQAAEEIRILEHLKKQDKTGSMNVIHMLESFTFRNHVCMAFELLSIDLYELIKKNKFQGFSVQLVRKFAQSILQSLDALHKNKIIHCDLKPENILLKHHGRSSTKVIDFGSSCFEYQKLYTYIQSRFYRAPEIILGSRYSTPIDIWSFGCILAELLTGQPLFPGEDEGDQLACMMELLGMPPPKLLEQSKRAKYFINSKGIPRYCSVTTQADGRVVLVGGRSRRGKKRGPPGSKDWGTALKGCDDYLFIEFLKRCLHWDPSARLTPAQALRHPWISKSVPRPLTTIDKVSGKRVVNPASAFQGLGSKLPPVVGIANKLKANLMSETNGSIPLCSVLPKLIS
Description: as §1

FMS = FMS (Homo sapiens, UniProt P07333); assay: Kinase electrophoretic mobility shift assay, FMS; format: biochemical; details: compounds tested at 10 μM, average of n = 2, ATP at apparent Km; read-out: FMS activity (percent inhibition)
Sequence of FMS (P07333 20-972, species assumed): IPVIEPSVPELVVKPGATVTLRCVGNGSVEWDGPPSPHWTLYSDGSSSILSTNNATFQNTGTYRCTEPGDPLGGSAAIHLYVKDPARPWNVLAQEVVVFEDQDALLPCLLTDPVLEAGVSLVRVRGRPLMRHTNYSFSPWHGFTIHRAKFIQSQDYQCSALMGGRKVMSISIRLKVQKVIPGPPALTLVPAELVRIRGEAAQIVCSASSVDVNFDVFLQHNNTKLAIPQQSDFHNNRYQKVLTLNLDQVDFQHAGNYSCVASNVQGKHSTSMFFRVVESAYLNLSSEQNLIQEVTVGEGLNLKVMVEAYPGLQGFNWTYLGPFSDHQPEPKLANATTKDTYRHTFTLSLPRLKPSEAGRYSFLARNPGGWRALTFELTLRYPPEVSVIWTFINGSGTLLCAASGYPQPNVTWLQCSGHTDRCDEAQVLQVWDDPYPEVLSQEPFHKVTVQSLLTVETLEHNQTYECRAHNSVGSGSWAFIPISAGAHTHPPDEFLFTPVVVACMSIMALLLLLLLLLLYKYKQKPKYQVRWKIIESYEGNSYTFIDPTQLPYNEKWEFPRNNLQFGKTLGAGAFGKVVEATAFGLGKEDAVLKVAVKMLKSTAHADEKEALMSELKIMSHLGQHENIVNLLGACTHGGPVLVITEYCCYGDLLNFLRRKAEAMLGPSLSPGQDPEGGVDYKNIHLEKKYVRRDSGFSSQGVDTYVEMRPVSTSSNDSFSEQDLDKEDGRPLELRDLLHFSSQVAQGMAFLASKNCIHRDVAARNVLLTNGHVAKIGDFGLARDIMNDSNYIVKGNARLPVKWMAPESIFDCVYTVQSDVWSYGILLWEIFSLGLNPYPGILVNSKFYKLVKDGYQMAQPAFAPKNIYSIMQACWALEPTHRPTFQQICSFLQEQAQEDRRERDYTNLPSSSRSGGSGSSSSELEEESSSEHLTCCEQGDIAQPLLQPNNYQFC
Description: as §1

GSK-3 beta = GSK-3 beta (Homo sapiens, UniProt P49841); assay: Kinase electrophoretic mobility shift assay, GSK-3 beta; format: biochemical; details: compounds tested at 10 μM, average of n = 2, ATP at apparent Km; read-out: GSK-3 beta activity (percent inhibition)
Sequence of GSK-3 beta (P49841 whole entry, species assumed): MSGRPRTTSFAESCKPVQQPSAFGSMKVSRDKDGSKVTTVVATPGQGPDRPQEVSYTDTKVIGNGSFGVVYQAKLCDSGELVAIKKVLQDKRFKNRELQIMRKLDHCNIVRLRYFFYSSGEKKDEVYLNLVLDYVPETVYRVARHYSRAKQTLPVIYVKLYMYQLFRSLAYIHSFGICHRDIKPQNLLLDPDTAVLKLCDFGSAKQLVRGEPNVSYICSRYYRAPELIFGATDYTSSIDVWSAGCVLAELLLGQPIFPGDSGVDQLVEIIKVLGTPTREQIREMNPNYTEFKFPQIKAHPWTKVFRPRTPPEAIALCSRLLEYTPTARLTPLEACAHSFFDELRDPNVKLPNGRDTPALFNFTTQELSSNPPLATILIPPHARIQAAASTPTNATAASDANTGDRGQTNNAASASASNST
Description: as §1

HIPK4 = molecular target: T3, HIPK4 (Homo sapiens, UniProt Q8NE63); assay: Kinase electrophoretic mobility shift assay, HIPK4; format: biochemical; details: compounds tested at 10 μM, average of n = 2, ATP at apparent Km; read-out: HIPK4 activity (percent inhibition)
T3 sequence (Q8NE63 1-616): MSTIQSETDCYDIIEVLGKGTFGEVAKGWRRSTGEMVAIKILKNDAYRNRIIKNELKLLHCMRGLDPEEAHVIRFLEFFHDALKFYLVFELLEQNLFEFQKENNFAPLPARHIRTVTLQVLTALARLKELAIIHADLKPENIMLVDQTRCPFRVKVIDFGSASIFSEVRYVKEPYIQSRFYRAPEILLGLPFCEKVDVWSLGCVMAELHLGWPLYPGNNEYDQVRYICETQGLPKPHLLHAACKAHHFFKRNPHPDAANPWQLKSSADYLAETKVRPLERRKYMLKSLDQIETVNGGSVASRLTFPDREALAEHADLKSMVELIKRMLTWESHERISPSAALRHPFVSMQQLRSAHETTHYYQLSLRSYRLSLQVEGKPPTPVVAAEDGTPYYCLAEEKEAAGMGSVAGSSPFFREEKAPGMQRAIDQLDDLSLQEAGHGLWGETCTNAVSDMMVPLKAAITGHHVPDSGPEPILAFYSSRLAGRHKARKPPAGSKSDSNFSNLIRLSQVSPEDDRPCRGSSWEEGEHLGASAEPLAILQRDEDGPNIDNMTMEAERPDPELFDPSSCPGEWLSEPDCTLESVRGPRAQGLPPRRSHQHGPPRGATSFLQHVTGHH
Description: as §1

JNK2 = JNK2 (Homo sapiens, UniProt P45984); assay: Kinase electrophoretic mobility shift assay, JNK2; format: biochemical; details: compounds tested at 10 μM, average of n = 2, ATP at apparent Km; read-out: JNK2 activity (percent inhibition)
Sequence of JNK2 (P45984 whole entry, species assumed): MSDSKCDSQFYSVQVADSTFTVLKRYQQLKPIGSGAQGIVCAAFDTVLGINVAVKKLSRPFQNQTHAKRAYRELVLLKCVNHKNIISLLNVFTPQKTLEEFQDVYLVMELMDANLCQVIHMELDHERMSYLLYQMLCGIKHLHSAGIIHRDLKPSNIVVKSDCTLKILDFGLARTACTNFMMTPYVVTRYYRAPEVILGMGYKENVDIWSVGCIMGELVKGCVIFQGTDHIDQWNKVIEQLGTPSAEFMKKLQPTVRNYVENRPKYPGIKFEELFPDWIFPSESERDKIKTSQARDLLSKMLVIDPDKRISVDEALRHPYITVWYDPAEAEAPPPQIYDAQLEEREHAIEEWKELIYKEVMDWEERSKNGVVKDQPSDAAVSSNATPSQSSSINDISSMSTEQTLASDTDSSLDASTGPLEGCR
Description: as §1

MAPK3 = MAPK3 (Homo sapiens, UniProt P27361); assay: Kinase electrophoretic mobility shift assay, MAPK3; format: biochemical; details: compounds tested at 10 μM, average of n = 2, ATP at apparent Km; read-out: MAPK3 activity (percent inhibition)
Sequence of MAPK3 (P27361 whole entry): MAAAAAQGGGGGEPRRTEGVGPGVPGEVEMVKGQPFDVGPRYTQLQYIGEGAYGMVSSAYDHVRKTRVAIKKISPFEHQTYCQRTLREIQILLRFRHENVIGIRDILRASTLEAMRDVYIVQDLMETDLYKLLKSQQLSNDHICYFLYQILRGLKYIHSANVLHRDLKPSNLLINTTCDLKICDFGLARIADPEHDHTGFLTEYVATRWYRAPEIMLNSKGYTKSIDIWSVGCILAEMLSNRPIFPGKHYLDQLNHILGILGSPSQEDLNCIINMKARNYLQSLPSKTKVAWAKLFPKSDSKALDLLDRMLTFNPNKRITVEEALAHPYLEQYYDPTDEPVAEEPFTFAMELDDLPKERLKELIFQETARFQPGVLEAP
Description: as §1

MNK2 = MNK2 (Homo sapiens, UniProt Q9HBH9); assay: Kinase electrophoretic mobility shift assay, MNK2; format: biochemical; details: compounds tested at 10 μM, average of n = 2, ATP at apparent Km; read-out: MNK2 activity (percent inhibition)
Sequence of MNK2 (Q9HBH9 whole entry, species assumed): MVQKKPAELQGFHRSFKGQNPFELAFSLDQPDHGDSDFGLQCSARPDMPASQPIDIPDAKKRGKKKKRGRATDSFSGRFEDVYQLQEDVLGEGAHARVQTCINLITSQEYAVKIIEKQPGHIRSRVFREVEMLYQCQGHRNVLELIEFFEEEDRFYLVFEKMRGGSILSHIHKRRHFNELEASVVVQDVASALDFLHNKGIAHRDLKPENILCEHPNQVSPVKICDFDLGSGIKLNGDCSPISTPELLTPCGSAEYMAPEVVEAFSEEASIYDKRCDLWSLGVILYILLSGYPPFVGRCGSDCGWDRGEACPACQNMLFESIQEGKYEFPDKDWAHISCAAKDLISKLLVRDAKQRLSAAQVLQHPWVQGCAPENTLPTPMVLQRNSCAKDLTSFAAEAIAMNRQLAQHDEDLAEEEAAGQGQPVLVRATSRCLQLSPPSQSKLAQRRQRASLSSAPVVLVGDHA
Description: as §1

P38 beta = P38 beta (Homo sapiens, UniProt Q15759); assay: Kinase electrophoretic mobility shift assay, P38 beta; format: biochemical; details: compounds tested at 10 μM, average of n = 2, ATP at apparent Km; read-out: P38 beta activity (percent inhibition)
Sequence of P38 beta (Q15759 whole entry): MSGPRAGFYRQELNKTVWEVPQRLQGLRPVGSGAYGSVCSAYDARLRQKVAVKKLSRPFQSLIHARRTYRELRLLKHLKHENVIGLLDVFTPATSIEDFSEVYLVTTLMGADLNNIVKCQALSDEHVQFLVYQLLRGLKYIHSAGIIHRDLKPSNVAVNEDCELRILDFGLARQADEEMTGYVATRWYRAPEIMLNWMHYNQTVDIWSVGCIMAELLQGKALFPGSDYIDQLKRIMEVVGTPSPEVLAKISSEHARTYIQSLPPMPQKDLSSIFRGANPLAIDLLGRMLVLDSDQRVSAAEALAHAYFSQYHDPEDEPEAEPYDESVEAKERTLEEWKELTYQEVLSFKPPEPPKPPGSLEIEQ
Description: as §1

[1] = test system: treatment-refractory metastatic colorectal cancer; details: single agent, patients with treatment-refractory metastatic colorectal cancer, phase III; cited from earlier work

| Structure (SMILES) | inhibition at 10 µM (Aurora -A) | inhibition at 10 µM (DYRK3) | inhibition at 10 µM (FMS) | inhibition at 10 µM (GSK-3 beta) | inhibition at 10 µM (HIPK4) | inhibition at 10 µM (JNK2) | inhibition at 10 µM (MAPK3) | inhibition at 10 µM (MNK2) | inhibition at 10 µM (P38 beta) | disease progression [1] | overall survival [1] |
| --- | --- | --- | --- | --- | --- | --- | --- | --- | --- | --- | --- |
| Cc1ccccc1-c1c2n(c3nc(Nc4ccc(N5CCOCC5)cc4)ncc13)CCNC2=O [Compd 1] | < 50% | < 50% | < 50% | < 50% | < 50% | < 50% | < 50% | < 50% | < 50% | – | – |
| Cc1ccccc1-c1c2n(c3nc(N[C@H]4CC[C@H](O)CC4)ncc13)CCNC2=O [Compd 2] | < 50% | < 50% | < 50% | < 50% | < 50% | 71 to 90% | 50 to 70% | < 50% | < 50% | – | – |
| O=C1NCCn2c1cc1cnc(N[C@H]3CC[C@H](O)CC3)nc12 [Compd 3] | < 50% | 71 to 90% | < 50% | 71 to 90% | 71 to 90% | > 90% | 71 to 90% | < 50% | < 50% | – | – |
| CC1(C)CNC(=O)c2cc3cnc(N[C@H]4CC[C@H](O)CC4)nc3n21 [Compd 4] | 50 to 70% | 71 to 90% | > 90% | > 90% | > 90% | > 90% | 71 to 90% | 71 to 90% | 50 to 70% | – | – |
| CCC1Cn2c(cc3cnc(N[C@H]4CC[C@H](O)CC4)nc32)C(=O)N1 (some centres unmarked) [Compd 5] | < 50% | 71 to 90% | 71 to 90% | > 90% | > 90% | > 90% | 71 to 90% | 50 to 70% | 50 to 70% | – | – |
| O=C1NC2(CCCC2)Cn2c1cc1cnc(N[C@H]3CC[C@H](O)CC3)nc12 [Compd 6] | 50 to 70% | 71 to 90% | 50 to 70% | > 90% | > 90% | > 90% | > 90% | 50 to 70% | 50 to 70% | – | – |
| O=C1NCC2(CCCC2)n2c1cc1cnc(N[C@H]3CC[C@H](O)CC3)nc12 [Compd 7] | > 90% | > 90% | 71 to 90% | > 90% | > 90% | > 90% | > 90% | 71 to 90% | 71 to 90% | – | – |
| CNC(=O)c1cc(Oc2ccc(NC(=O)Nc3ccc(Cl)c(C(F)(F)F)c3)c(F)c2)ccn1 [regorafenib] | – | – | – | – | – | – | – | – | – | delayed disease progression | significantly improved overall survival |
